Measurements reported in PubChem BioAssay (NCI).
“And” between values parts separate entries of the source, which are not always exact repeats. Equal entries are not always repeated.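 All cell lines were grown in 96-well plates and treated with compound for 48 hours. GI50 is the concentration that inhibits growth by half. TGI denotes the concentration required for complete inhibition of growth.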

What was measured:
Assay in all cases: NCI-60 cell line screen, 48 h
786-0 renal = tested on: 786-0 renal
EKVX NSCLC = tested on: EKVX NSCLC
IGROV1 ovarian = tested on: IGROV1 ovarian
K-562 leukemia = tested on: K-562 leukemia
KM12 colon = tested on: KM12 colon
LOX IMVI melanoma = tested on: LOX IMVI melanoma
MALME-3M melanoma = tested on: MALME-3M melanoma
U251 CNS = tested on: U251 CNS
UO-31 renal = tested on: UO-31 renal
PC-3 prostate = tested on: PC-3 prostate

SMILES | TGI (786-0 renal) | TGI (EKVX NSCLC) | TGI (IGROV1 ovarian) | TGI (K-562 leukemia) | TGI (KM12 colon) | TGI (LOX IMVI melanoma) | TGI (MALME-3M melanoma) | TGI (U251 CNS) | TGI (UO-31 renal) | GI50 (786-0 renal) | GI50 (EKVX NSCLC) | GI50 (IGROV1 ovarian) | GI50 (K-562 leukemia) | GI50 (KM12 colon) | GI50 (LOX IMVI melanoma) | GI50 (PC-3 prostate) | TGI (PC-3 prostate) | GI50 (U251 CNS) | GI50 (UO-31 renal) | GI50 (MALME-3M melanoma)
CC(=O)c1sc(-c2nc(C)c(C(=O)/C=C\c3ccc(/C=C\C(=O)c4sc(-c5nc(C)c(C(C)=O)s5)nc4C)cc3)s2)nc1C | > 100 µM | > 100 µM | > 100 µM | > 100 µM | > 100 µM | > 100 µM | > 100 µM | > 100 µM | > 100 µM |  |  |  |  |  |  |  |  |  |  | 
O=C(Nc1ccc(-c2ccccc2)cc1)C1CCN(S(=O)(=O)c2ccccc2Cl)CC1 | 77.9 µM | > 100 µM | > 100 µM | > 100 µM | > 100 µM | > 100 µM |  | 67.3 µM | > 100 µM | 23.6 µM | 73.5 µM | 21.4 µM | 71.8 µM | 36.7 µM | 27.7 µM | 38 µM | > 100 µM | 18.8 µM | 66.2 µM | 
COC(=O)/C(C#N)=C1\CCC(O)N1 (stereo not drawn) | > 100 µM | > 100 µM | > 100 µM | > 100 µM | > 100 µM | > 100 µM | > 100 µM | > 100 µM | > 100 µM |  |  |  |  |  |  |  |  |  |  | 
COc1cc2ccc3c4cc(OC)c(OC(C)C)cc4cnc3c2cc1OC | > 100 µM | > 100 µM | > 100 µM | > 100 µM | > 100 µM | > 100 µM | > 100 µM | > 100 µM | > 100 µM |  |  |  |  |  |  |  |  |  |  | 
C=C1C[C@]23CCC4C(C)(C)C(=O)CC[C@]4(C)C2C[C@H]1C(O)C3=O (stereo partly drawn) | > 75 µM | > 75 µM | > 75 µM | > 75 µM | > 75 µM | > 75 µM | > 75 µM | > 75 µM | > 75 µM |  |  |  |  |  |  |  |  |  |  | 
CCCCOC(=O)NC(=O)c1cn(CCCOC(=O)NCCCCCCNC(=O)OCCCn2cc(C(=O)NC(=O)OCCCC)c(=O)[nH]c2=O)c(=O)[nH]c1=O | > 100 µM | > 100 µM | > 100 µM | > 100 µM | > 100 µM | > 100 µM | > 100 µM | > 100 µM | > 100 µM |  |  |  |  |  |  |  |  |  |  | 
O=C1CC2C(=O)N(Cc3ccccc3)C1C=C2S(=O)(=O)c1ccccc1 (stereo not drawn) | > 100 µM | > 100 µM | > 100 µM | > 100 µM | > 100 µM | > 100 µM | > 100 µM | > 100 µM | > 100 µM |  |  |  |  |  |  |  |  |  |  | 
COC(=O)/C(C=O)=C/Sc1ccccc1 | 30.2 µM | > 100 µM | 28.8 µM | > 100 µM | > 100 µM | 23 µM |  | 42.2 µM | 30.7 µM |  |  |  |  |  |  |  |  |  |  | 
Nc1ccn(C2(CO)C=C(CO)C(O)C2O)c(=O)n1 (stereo not drawn) | > 25.8 µM | > 25.8 µM | > 25.8 µM | > 25.8 µM | > 25.8 µM |  | > 25.8 µM | > 25.8 µM | > 25.8 µM |  |  |  |  |  |  |  |  |  |  | 
CC1=NN(C(=O)CC(=O)N(C(=O)c2ccccc2Cl)c2ccc(C)cc2)C(=O)C1N=Nc1ccc([N+](=O)[O-])cc1 (stereo not drawn) | > 68.5 µM | > 100 µM | > 100 µM | > 80.8 µM | > 100 µM | > 57.4 µM | > 100 µM | 48.9 µM | > 93.6 µM |  |  |  |  |  |  |  |  |  |  | 
O=C(Nc1ccc(-n2cc(-c3ccncc3)c(-c3ccc(Cl)c(O)c3)n2)cc1)Nc1ccc(Cl)c(C(F)(F)F)c1 | 3.11 µM | 14.6 µM | 4.96 µM | 7.37 µM | 3.01 µM | 2.75 µM |  | 2.32 µM | 3.6 µM | 1.22 µM | 3.05 µM | 2.29 µM | 1.89 µM | 1.47 µM | 1.44 µM | 1.86 µM | 9.63 µM | 1.08 µM | 1.66 µM | 
O=C(Nc1cc(Cl)ccc1Cl)C(=O)C(c1cnc2ccccc2n1)[N+](=O)[O-] (stereo not drawn) | > 100 µM | > 100 µM | > 100 µM | > 100 µM | > 100 µM | > 100 µM | > 100 µM | > 100 µM | > 100 µM |  |  |  |  |  |  |  |  |  |  | 
CC(C)CCCC(C)[C@H]1CCC2[C@H]3C(CC[C@@]21C)[C@@]1(C)CCC=C[C@]12C[C@@H]2[C@@H]3O (stereo partly drawn) | > 100 µM | > 100 µM | > 100 µM |  | > 100 µM | > 100 µM | > 100 µM | > 100 µM | > 100 µM |  |  |  |  |  |  |  |  |  |  | 
Cc1cc(NS(=O)(=O)c2ccc(Nc3c4ccccc4nc4c(C(=O)NCCN(C)C)cccc34)cc2)no1 | 19.7 µM | 30.1 µM | 22.1 µM | > 100 µM | > 100 µM | 31.3 µM |  | > 100 µM |  |  |  |  |  |  |  |  |  |  |  | 
COc1cccc(-n2c3nc(=O)n(C)c(=O)c-3nc3ccccc32)c1 | > 100 µM | 82.1 µM | 59.6 µM | > 100 µM | > 100 µM |  | 29.8 µM | 38.2 µM | > 100 µM |  |  |  |  |  |  |  |  |  |  | 
O=c1[nH]c2cc(Cl)ccc2nc1/C(=N\O)C(O)c1ccc(Cl)cc1Cl (stereo not drawn) | > 100 µM |  | > 100 µM | > 100 µM | > 100 µM | > 100 µM | > 100 µM | > 100 µM | > 100 µM |  |  |  |  |  |  |  |  |  |  | 
N.N.N.N.[Cl-].[Co+3].[N-]=[N+]=[N-].[N-]=[N+]=[N-] | > 100 µM | > 100 µM | > 100 µM | > 100 µM | > 100 µM | > 100 µM | > 100 µM | > 100 µM | > 100 µM | > 100 µM | > 100 µM | > 100 µM | > 100 µM | > 100 µM | > 100 µM |  |  | > 100 µM | 41.3 µM | 57.9 µM
C[C@@]12CCCc3coc(c31)C(=O)c1cc3c(cc12)C(=O)C=CC3=O | > 1 µM and 30.7 µM | 34.1 µM | > 1 µM and 37.1 µM | > 1 µM and 78.2 µM | > 1 µM and 41.8 µM | > 1 µM and 35.1 µM | > 1 µM | > 100 µM | > 1 µM and 29.7 µM | > 1 µM |  | > 1 µM | > 1 µM | > 1 µM | > 1 µM |  |  | > 1 µM | > 1 µM | 
C=CCNC(=O)N(CCC)CCCCC(NC(C)=O)C(=O)NCc1ccccc1 (stereo not drawn) | > 100 µM | > 100 µM | > 100 µM | > 100 µM | > 100 µM | > 100 µM | > 100 µM | > 100 µM | > 100 µM |  |  |  |  |  |  |  |  |  |  | 
